In brackets after ≈: the same amount, converted by molar mass. Entries after “also recorded” stand apart in the source; their conditions may differ. Like-named read-outs stand apart in the source and are kept apart here.
How the values were obtained:
[1] = Microsomal stability assay; settings: for MLM t1/2: half-life of parent compound during incubation with mouse liver microsomes, 1 μM, 0.5 mg/mL, NADPH; for half-life at 1 μM: mouse, microsomes
[2] = biological target: streptokinase (SK) expression in GAS strain UMAA2616; experiment: microbe, parasite or virus in culture; assay type: cell-based, Streptococcus pyogenes (Group A Streptococcus); settings: for IC50: read-out: IC50 (SK activity)
HeLa cells = experiment: Mammalian cytotoxicity assay; assay type: cell-based; settings: up to 100 μM, the highest concentration tested; 24 hours
[3] = tested on: S. aureus biofilm formation; experiment: Biofilm formation, plate-based OD assay; assay type: cell-based, Staphylococcus aureus; settings: reported in greater detail in ref 28
Aqueous = settings: for Aq. Sol.: kinetic solubility in aqueous Todd Hewitt (THY) bacterial media, 37°C
GAS strain UMAA2616 = experiment: microbe, parasite or virus in culture; assay type: cell-based, Streptococcus pyogenes (Group A Streptococcus); settings: Streptococcus pyogenes, UMAA2616, read-out: 50 μM Growth T/C
GAS infection = settings: transgenic mouse model of GAS infection; cited from earlier work
[4] = full dose-response titration, approximate IC50

2-((2-Methoxyethyl)thio)-4-(4-methoxyphenethoxy)-5,5-dimethyl-5,6-dihydrobenzo[h]quinazoline [20a]
MLM t1/2 [1]: 45.1 min | IC50 [2, 4]: 5.5 ± 0.7 µM | Inhibition of HeLa cell growth (HeLa cells): ≤ 35%

2-(ethylthio)-9-methoxy-5,5-dimethyl-3-(2,2,2-trifluoroethyl)-5,6-dihydrobenzo[h]quinazolin-4(3H)-one [19b]
MLM t1/2 [1]: 3.0 min

2-(ethylthio)-9-methoxy-5,5-dimethyl-4-(2,2,2-trifluoroethoxy)-5,6-dihydrobenzo[h]quinazoline [20b]
MLM t1/2 [1]: 45.5 min

3-Allyl-2-(allylthio)-8-methoxy-5,5-dimethyl-5,6-dihydrobenzo[h]quinazolin-4(3H)-one [12k]
MLM t1/2 [1]: 0.6 min | IC50 [2, 4]: 6.9 ± 0.3 µM | S. aureus biofilm inhibition [3]: potent S. aureus biofilm inhibitors | Aq. Sol. (Aqueous): 14.5 ± 3.5 µM

3-Allyl-2-(ethylthio)-8-isopropoxy-5,5-dimethyl-5,6-dihydrobenzo[h]quinazolin-4(3H)-one [17f]
IC50 [2, 4]: 4.1 ± 0.7 µM | Aq. Sol. (Aqueous): 14.5 ± 3.5 µM

3-allyl-2-(ethylthio)-8-methoxy-5,5-dimethyl-5,6-dihydrobenzo[h]quinazolin-4(3H)-one [12c]
MLM t1/2 [1]: 0.8 min | IC50 [2, 4]: 3.1 ± 0.7 µM | S. aureus biofilm inhibition [3]: potent S. aureus biofilm inhibitors | Aq. Sol. (Aqueous): 14.5 ± 3.5 µM | Inhibition of HeLa cell growth (HeLa cells): ≤ 35%

3-allyl-2-(ethylthio)-9-methoxy-5,5-dimethyl-2,3,5,6-tetrahydrobenzo[h]quinazolin-4(1H)-one [12a]
MLM t1/2 [1]: 2.3 min | Fold improvement in potency (IC50) over 1 [2]: greater than 35 fold | Reduction in streptokinase activity at 5 μM [2]: 90% | IC50 [2, 4]: 1.3 ± 0.6 µM | Aq. Sol. (Aqueous): 9 ± 2 µM | Inhibition of HeLa cell growth (HeLa cells): ≤ 35%

4-(allyloxy)-2-(ethylthio)-9-methoxy-5,5-dimethyl-5,6-dihydrobenzo[h]quinazoline [20c]
MLM t1/2 [1]: 8.3 min

C=CCn1c(SCc2ccc(OC)cc2)nc2c(c1=O)C1(CCCCC1)Cc1ccccc1-2 [6a, 3-allyl-2-((4-methoxybenzyl)thio)-3H-spiro[benzo[h]quinazoline-5,1′-cyclohexan]-4(6H)-one]
activity at 50 µM (GAS strain UMAA2616): 105 ± 6%

C=CCn1c(SCc2ccccc2)nc2c(c1=O)C1(CCCCC1)Cc1ccccc1-2 [6b, 3-allyl-2-(benzylthio)-3H-spiro[benzo[h]quinazoline-5,1′-cyclohexan]-4(6H)-one]
IC50 ([2]; Streptococcus pyogenes): > 50 µM | activity at 50 µM (GAS strain UMAA2616): 96 ± 6%

C=CCn1c(SCc2ccc(NC(C)=O)cc2)nc2c(c1=O)C1(CCCCC1)Cc1ccccc1-2 [6c, N-(4-(((3-allyl-4-oxo-4,6-dihydro-3H-spiro[benzo[h]quinazoline-5,1′-cyclohexan]-2-yl)thio)methyl)phenyl)acetamide]
activity at 50 µM (GAS strain UMAA2616): 96 ± 14%

C=CCn1c(SCCOC)nc2c(c1=O)C1(CCCCC1)Cc1ccccc1-2 [6d, 3-allyl-2-((2-methoxyethyl)thio)-3H-spiro[benzo[h]quinazoline-5,1′-cyclohexan]-4(6H)-one]
activity at 50 µM (GAS strain UMAA2616): 99 ± 10%

C=CCn1c(SCCN(C)C)nc2c(c1=O)C1(CCCCC1)Cc1ccccc1-2 [6e, 3-allyl-2-((2-(dimethylamino)ethyl)thio)-3H-spiro[benzo[h]quinazoline-5,1′-cyclohexan]-4(6H)-one]
activity at 50 µM (GAS strain UMAA2616): 88 ± 20%

C=CCn1c(SC)nc2c(c1=O)C1(CCCCC1)Cc1ccccc1-2 [6f, 3-allyl-2-(methylthio)-3H-spiro[benzo[h]quinazoline-5,1′-cyclohexan]-4(6H)-one]
activity at 50 µM (GAS strain UMAA2616): 98 ± 3%

C=CCn1c(OCC)nc2c(c1=O)C1(CCCCC1)Cc1ccccc1-2 [7a, 3-allyl-2-ethoxy-3H-spiro[benzo[h]quinazoline-5,1′-cyclohexan]-4(6H)-one]
activity at 50 µM (GAS strain UMAA2616): 102 ± 9%

C=CCn1c(NCC)nc2c(c1=O)C1(CCCCC1)Cc1ccccc1-2 [7b, 3-allyl-2-(ethylamino)-3H-spiro[benzo[h]quinazoline-5,1′-cyclohexan]-4(6H)-one]
activity at 50 µM (GAS strain UMAA2616): 32 ± 18%

C=CCn1c(SCC(N)=O)nc2c(c1=O)C(C)(C)Cc1ccccc1-2 [12d, 2-((3-allyl-5,5-dimethyl-4-oxo-3,4,5,6-tetrahydrobenzo[h]quinazolin-2-yl)thio)acetamide]
activity at 50 µM (GAS strain UMAA2616): 100 ± 2%

C=CCn1c(SCc2ccccn2)nc2c(c1=O)C(C)(C)Cc1ccccc1-2 [12e, 3-allyl-5,5-dimethyl-2-((pyridin-2-ylmethyl)thio)-5,6-dihydrobenzo[h]quinazolin-4(3H)-one]
activity at 50 µM (GAS strain UMAA2616): 105 ± 2%

C=CCn1c(SCCO)nc2c(c1=O)C(C)(C)Cc1ccccc1-2 [12f, 3-allyl-2-((2-hydroxyethyl)thio)-5,5-dimethyl-5,6-dihydrobenzo[h]quinazolin-4(3H)-one]
activity at 50 µM (GAS strain UMAA2616): 6 ± 3%

C=CCn1c(SCC#N)nc2c(c1=O)C(C)(C)Cc1ccccc1-2 [12g, 2-((3-allyl-5,5-dimethyl-4-oxo-3,4,5,6-tetrahydrobenzo[h]quinazolin-2-yl)thio)acetonitrile]
activity at 50 µM (GAS strain UMAA2616): 100 ± 3% | solubility at 5 min (Aqueous): 3 ± 1 µM (≈ 1.01 µg/mL)

C=CCn1c(SCCOC)nc2c(c1=O)C(C)(C)Cc1ccccc1-2 [12h, 3-allyl-2-((2-methoxyethyl)thio)-5,5-dimethyl-5,6-dihydrobenzo[h]quinazolin-4(3H)-one]
activity at 50 µM (GAS strain UMAA2616): 86 ± 10% | Inhibition of HeLa cell growth (HeLa cells): ≤ 35%

CCn1c(SCCOC)nc2c(c1=O)C(C)(C)Cc1ccccc1-2 [12i, 3-ethyl-2-((2-methoxyethyl)thio)-5,5-dimethyl-5,6-dihydrobenzo[h]quinazolin-4(3H)-one]
activity at 50 µM (GAS strain UMAA2616): 39 ± 15%

C=CCn1c(SCC(F)(F)F)nc2c(c1=O)C(C)(C)Cc1ccc(OC)cc1-2 [12l, 3-allyl-9-methoxy-5,5-dimethyl-2-((2,2,2-trifluoroethyl)thio)-5,6-dihydrobenzo[h]quinazolin-4(3H)-one]
half-life at 1 μM [1]: 4.8 min | activity at 50 µM (GAS strain UMAA2616): 86 ± 7%

CCSc1nc2c(c(=O)n1C)C(C)(C)Cc1ccc(OC)cc1-2 [12m, 2-(ethylthio)-9-methoxy-3,5,5-trimethyl-5,6-dihydrobenzo[h]quinazolin-4(3H)-one]
half-life at 1 μM [1]: 1.7 min | activity at 50 µM (GAS strain UMAA2616): 83 ± 15%

C=CCn1c(OCC)nc2c(c1=O)C(C)(C)Cc1ccccc1-2 [13a, 3-allyl-2-ethoxy-5,5-dimethyl-5,6-dihydrobenzo[h]quinazolin-4(3H)-one]
activity at 50 µM (GAS strain UMAA2616): 50 ± 23%

C=CCn1c(NCC)nc2c(c1=O)C(C)(C)Cc1ccccc1-2 [13b, 3-allyl-2-(ethylamino)-5,5-dimethyl-5,6-dihydrobenzo[h]quinazolin-4(3H)-one]
activity at 50 µM (GAS strain UMAA2616): 6 ± 3%

COCCSc1nc2c(c(=O)n1CCc1ccc(OC)cc1)C(C)(C)Cc1ccccc1-2 [19a, 2-((2-Methoxyethyl)thio)-3-(4-methoxyphenethyl)-5,5-dimethyl-5,6-dihydrobenzo[h]quin-azolin-4(3H)-one]
Inhibition of HeLa cell growth (HeLa cells): ≤ 35%

C=CCn1c(SCCCC)nc2c(c1=O)C1(CCCCC1)Cc1ccccc1-2 [compound 1, 3-allyl-2-(butylthio)-3H-spiro[benzo[h]quinazoline-5,1′-cyclohexan]-4(6H)-one]
Fold higher stability to oxidation in MLM (comparison of t1/2) ([1]; 1 vs 6b, O-alkylated vs N-alkylated counterparts): more than 60 fold | Efficacy in mouse models of GAS infection (GAS infection): displayed efficacy; also recorded: significant protective effect | % of plasmin activity at 50 μM [2]: 48 ± 28% | IC50 ([2]; Streptococcus pyogenes): > 50 µM | activity at 50 µM (GAS strain UMAA2616): 95 ± 8% | solubility at 5 min (Aqueous): 2 ± 1 µM (≈ 0.789 µg/mL) | Inhibition of HeLa cell growth (HeLa cells): ≤ 35%

C=CCn1c([S+]([O-])CC)nc2c(c1=O)C(C)(C)Cc1ccc(OC)cc1-2 (stereo not drawn) [compound 14, 3-allyl-2-(ethylsulfinyl)-9-methoxy-5,5-dimethyl-5,6-dihydrobenzo[h]quinazolin-4(3H)-one]
half-life at 1 μM [1]: 2.8 min | activity at 50 µM (GAS strain UMAA2616): 101 ± 5%

C=CCn1c(S(=O)(=O)CC)nc2c(c1=O)C(C)(C)Cc1ccc(OC)cc1-2 [compound 15, 3-allyl-2-(ethylsulfonyl)-9-methoxy-5,5-dimethyl-5,6-dihydrobenzo[h]quinazolin-4(3H)-one]
half-life at 1 μM [1]: 3.8 min | activity at 50 µM (GAS strain UMAA2616): 103 ± 3%

CCn1c(SCc2ccccc2)nc2c(c1=O)C1(CCCC1)Cc1ccccc1-2 [compound 28]
activity at 50 µM (GAS strain UMAA2616): 107 ± 4%

C=CCn1c(SCc2ccccc2)nc2c(c1=O)C(C)(C)Cc1ccccc1-2 [compound 29]
activity at 50 µM (GAS strain UMAA2616): 103 ± 3% | Inhibition of HeLa cell growth (HeLa cells): ≤ 35%

C=CCn1c(SCC)nc2c(c1=O)C(C)(C)Cc1ccccc1-2 [compound 30]
activity at 50 µM (GAS strain UMAA2616): 89 ± 5%

C=CCn1c(SCC(=O)OCC)nc2c(c1=O)C(C)(C)Cc1ccccc1-2 [compound 31]
activity at 50 µM (GAS strain UMAA2616): 101 ± 2%

— PMC3605901 (Bioorganic & medicinal chemistry, 2013)
